Consider 29 compounds from patent publication US9914730B2, “Azaquinazoline inhibitors of Atypical protein Kinase C” (Ignyta, Inc., priority 2012, dated 2018).

The target of this assay is T1, full-length human PKCι (Homo sapiens, UniProt P41743).
T1 construct: Recombinant, full-length human PKCι expressed in Sf21 insect cells is also commercially available; purchased; host or cells: Sf21 insect cells
T1 sequence (P41743 1-596): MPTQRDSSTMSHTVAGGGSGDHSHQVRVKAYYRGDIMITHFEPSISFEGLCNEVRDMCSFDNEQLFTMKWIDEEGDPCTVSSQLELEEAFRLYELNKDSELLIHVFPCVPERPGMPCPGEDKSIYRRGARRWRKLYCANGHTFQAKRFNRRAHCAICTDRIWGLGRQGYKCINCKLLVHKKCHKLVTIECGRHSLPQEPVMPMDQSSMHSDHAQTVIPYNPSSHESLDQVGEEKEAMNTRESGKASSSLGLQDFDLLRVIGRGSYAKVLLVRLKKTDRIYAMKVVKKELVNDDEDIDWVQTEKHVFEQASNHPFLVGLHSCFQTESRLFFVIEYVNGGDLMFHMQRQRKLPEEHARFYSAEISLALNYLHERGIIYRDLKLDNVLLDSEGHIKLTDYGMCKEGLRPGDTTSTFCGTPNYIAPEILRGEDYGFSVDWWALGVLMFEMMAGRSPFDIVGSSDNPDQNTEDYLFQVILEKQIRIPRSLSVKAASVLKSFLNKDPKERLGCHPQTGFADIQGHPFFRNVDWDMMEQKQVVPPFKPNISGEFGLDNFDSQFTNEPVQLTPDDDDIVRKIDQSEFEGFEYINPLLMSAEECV
The assay can be described thus: PKCι IC50 IMAP assay, full-length PKCι at 150 μM ATP. It is filed as biochemical. To be noted: read-out: IC50 in IMAP assay against full length PKCi at 150 μM ATP. Summed up: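 Full-length human PKCι from Sf21 cells, typically 15 pM, with 100 nM 5FAM-PKCε pseudosubstrate peptide and 150 μM ATP (5× apparent KM), 60 min at room temperature, 4% DMSO. IMAP fluorescence polarisation read-out; inhibition normalised to no-compound and no-enzyme controls, IC50 from curve fit.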

The term IC50 denotes the concentration that gives 50% inhibition. Take `COc1cc(Nc2cc(-c3nc(N4CCNCC4)c4c(C5CC5)cncc4n3)ccn2)ccc1F` [Example 627, [4-(5-Cyclopropyl-4-piperazin-1-yl-pyrido[3,4-d]pyrimidin-2-yl)-pyridin-2-yl]-(4-fluoro-3-methoxy-phenyl)-amine]: the concentration for half-maximal inhibition (IC50) is less than 100 nM.

For `COc1cncc2nc(-c3ccnc(Nc4c(F)cccc4F)c3)nc(N3CCN[C@@H](CO)C3)c12` [Example 442, ((R)-4-{2-[2-(2,6-Difluoro-phenylamino)-pyridin-4-yl]-5-methoxy-pyrido[3,4-d]pyrimidin-4-yl}-piperazin-2-yl)-methanol], the IC50 was less than 100 nM.

On to `CS(=O)(=O)CCN1CCN(c2nc(-c3ccnc(Nc4ccccc4)c3)nc3cncc(C4CC4)c23)CC1` [Example 663, (4-{5-Cyclopropyl-4-[4-(2-methanesulfonyl-ethyl)-piperazin-1-yl]-pyrido[3,4-d]pyrimidin-2-yl}-pyridin-2-yl)-phenyl-amine], for which the IC50 is 100 to 1000 nM.

`c1cc(-c2nc(N3CCNCC3)c3c(C4CC4)cncc3n2)c2cc(C3CCCCC3)[nH]c2n1` [Example 2152, 5-Cyclopropyl-2-(2-cyclohexyl-1H-pyrrolo[2,3-b]pyridin-4-yl)-4-piperazin-1-yl-pyrido[3,4-d]pyrimidine]: the IC50 was less than 100 nM.

For the compound `N#Cc1ccccc1Nc1cc(-c2nc(N3CCNCC3)c3c(C4CC4)cncc3n2)ccn1` [Example 519, 2-[4-(5-Cyclopropyl-4-piperazin-1-yl-pyrido[3,4-d]pyrimidin-2-yl)-pyridin-2-ylamino]-benzonitrile], the IC50 is 100 to 1000 nM.

As for `c1ccc(C[C@H]2CN(c3nc(-c4ccnc5[nH]ccc45)nc4cncc(C5CC5)c34)CCN2)cc1` [Example 1219, 4-((S)-3-Benzyl-piperazin-1-yl)-5-cyclopropyl-2-(1H-pyrrolo[2,3-b]pyridin-4-yl)-pyrido[3,4-d]pyrimidine], the IC50 is less than 100 nM.

For the compound `COc1cncc2nc(-c3ccncc3F)nc(N3CCNCC3)c12` [Example 63, 1-[2-(3-fluoropyridin-4-yl)-5-methoxypyrido-[3,4-d]pyrimidin-4-yl]piperazine], the concentration for half-maximal inhibition (IC50) lay in the range of 100 to 1000 nM.

In the case of `Fc1cc(F)c(Nc2cc(-c3nc(N4CCNCC4)c4c(C5CC5)cnc(Cl)c4n3)ccn2)nc1F` [Example 2178, [4-(8-Chloro-5-cyclopropyl-4-piperazin-1-yl-pyrido[3,4-d]pyrimidin-2-yl)-pyridin-2-yl]-(3,5,6,-trifluoro-pyridin-2-yl)-amine], the 50% inhibitory concentration (IC50) was less than 100 nM.

With `CC1(C)CN(c2nc(-c3ccnc4[nH]c(C(C)(C)C)cc34)nc3cncc(C4CCC4)c23)CCN1` [Example 2028, 2-(2-tert-Butyl-1H-pyrrolo[2,3-b]pyridin-4-yl)-5-cyclobutyl-4-(3,3-dimethyl-piperazin-1-yl)-pyrido[3,4-d]pyrimidine], the IC50 was less than 100 nM.

`COc1cncc2nc(-c3ccnc(Nc4cc(C#N)ccn4)c3)nc(N3CCOCC3)c12` [Example 388, 2-[4-(5-Methoxy-4-morpholin-4-yl-pyrido[3,4-d]pyrimidin-2-yl)-pyridin-2-ylamino]-isonicotinonitrile]: the IC50 fell in the range of 10000 to 40000 nM.

On to `CN1CCN(c2nccc3c(NC[C@H](N)Cc4ccccc4)nc(-c4ccncc4)nc23)CC1` [Example 127, (R)—N^1-[8-(4-Methyl-piperazin-1-yl)-2-pyridin-4-yl-pyrido[3,4-d]pyrimidin-4-yl]-3-phenyl-propane-1,2-diamine], for which the IC50 lay in the range of 10000 to 40000 nM.

Turning to `Fc1cc(C2CCC2)cnc1Nc1cc(-c2nc(N3CCNCC3)c3c(C4CC4)cncc3n2)ccn1` [Example 2013, (5-Cyclobutyl-3-fluoro-pyridin-2-yl)-[4-(5-cyclopropyl-4-piperazin-1-yl-pyrido[3,4-d]pyrimidin-2-yl)-pyridin-2-yl]-amine], the concentration for half-maximal inhibition (IC50) was less than 100 nM.

As to `C[C@H](Nc1cc(-c2nc(N3CCNCC3)c3c(C4CC4)cncc3n2)ccn1)c1ccccc1` [Example 587, [4-(5-Cyclopropyl-4-piperazin-1-yl-pyrido[3,4-d]pyrimidin-2-yl)-pyridin-2-yl]-((S)-1-phenyl-ethyl)-amine], the IC50 was less than 100 nM.

For `CS(=O)(=O)C[C@H]1CN(c2nc(-c3ccnc(Nc4c(F)cccc4F)c3)nc3cncc(C4CC4)c23)CCN1` [Example 772, {4-[5-Cyclopropyl-4-((R)-3-methanesulfonyl-methyl-piperazin-1-yl)-pyrido[3,4-d]pyrimidin-2-yl]-pyridin-2-yl}-(2,6-difluoro-phenyl)-amine], the half-inhibitory concentration (IC50) was 100 to 1000 nM.

As for `Nc1cccc(-c2nccc3c(NC[C@@H](N)Cc4ccccc4)nc(-c4ccncc4)nc23)c1` [Example 109, N-[(2S)-2-amino-3-phenylpropyl]-8-(3-aminophenyl)-2-(pyridin-4-yl)pyrido[3,4-d]pyrimidin-4-amine], the 50% inhibitory concentration (IC50) lay within 100 to 1000 nM.

Regarding `N#Cc1cc(F)c(Nc2cc(-c3nc(N4CCNCC4)c4c(C5CC5)cncc4n3)ccn2)c(F)c1` [Example 740, 4-[4-(5-Cyclopropyl-4-piperazin-1-yl-pyrido[3,4-d]pyrimidin-2-yl)-pyridin-2-ylamino]-3,5-difluoro-benzonitrile], the 50% inhibitory concentration (IC50) is 100 to 1000 nM.

With `Fc1cccc(Nc2cc(-c3nc(N4CCNCC4)c4c(Cl)cncc4n3)ccn2)c1F` [Example 252, [4-(5-Chloro-4-piperazin-1-yl-pyrido[3,4-d]pyrimidin-2-yl)-pyridin-2-yl]-(2,3-difluoro-phenyl)-amine], the IC50 fell in the range of 100 to 1000 nM.

For `Clc1cnc(-c2cc[nH]n2)c2nc(-c3ccncc3)nc(N3CCNCC3)c12` [Example 141, 5-Chloro-4-piperazin-1-yl-8-(1H-pyrazol-3-yl)-2-pyridin-4-yl-pyrido[3,4d]pyrimidine], the 50% inhibitory concentration (IC50) fell in the range of 100 to 1000 nM.

In the case of `Clc1nccc2c(N3CCN[C@@H](Cc4ccccc4)C3)nc(-c3ccncc3)nc12` [Example 68, (3S)-3-benzyl-1-[8-chloro-2-(pyridin-4-yl)pyrido[3,4-d]-pyrimidin-4-yl]-piperazine], the IC50 was 100 to 1000 nM.

With `COc1cncc2nc(-c3ccnc(Nc4ccccc4)c3)nc(N3CCN[C@@H](C(C)C)C3)c12` [Example 224, {4-[4-((S)-3-Isopropyl-piperazin-1-yl)-5-methoxy-pyrido[3,4-d]pyrimidin-2-yl]-pyridin-2-yl}-phenyl-amine], the IC50 was less than 100 nM.

For the compound `COc1cncc2nc(-c3ccnc(NC(C)=O)c3)nc(N3CCNCC3)c12` [Example 214, N-[4-(5-Methoxy-4-piperazin-1-yl-pyrido[3,4-d]pyrimidin-2-yl)-pyridin-2-yl]-acetamide], the concentration for half-maximal inhibition (IC50) was less than 100 nM.

Take `NC1CCN(c2nc(-c3ccnc(Nc4c(F)cccc4F)c3)nc3cncc(C4CC4)c23)CC1` [Example 690, {4-[4-(4-Amino-piperidin-1-yl)-5-cyclopropyl-pyrido[3,4-d]pyrimidin-2-yl]-pyridin-2-yl}-(2,6-difluoro-phenyl)-amine]: the IC50 was less than 100 nM.

For `COc1cncc2nc(-c3ccnc(Nc4ccccc4F)c3)nc(N[C@@H]3CCNC3)c12` [Example 228, {2-[2-(2-Fluoro-phenylamino)-pyridin-4-yl]-5-methoxy-pyrido[3,4-d]pyrimidin-4-yl}-(R)-pyrrolidin-3-yl-amine], the concentration for half-maximal inhibition (IC50) was less than 100 nM.

For `c1ccc2c(c1)CC[C@@H]2Nc1cc(-c2nc(N3CCNCC3)c3c(C4CC4)cncc3n2)ccn1` [Example 2099, [4-(5-Cyclopropyl-4-piperazin-1-yl-pyrido[3,4-d]pyrimidin-2-yl)-pyridin-2-yl]-(S)-indan-1-yl-amine], the IC50 is less than 100 nM.

For the compound `c1cc(-c2nc(N3CCNCC3)c3c(C4CC4)cncc3n2)cc(NC2CCCCC2)n1` [Example 282, Cyclohexyl-[4-(5-cyclopropyl-4-piperazin-1-yl-pyrido[3,4-d]pyrimidin-2-yl)-pyridin-2-yl]-amine], the half-inhibitory concentration (IC50) was less than 100 nM.

As for `COc1cncc2nc(-c3ccnc(Nc4cccc(N5CCOCC5)c4)c3)nc(N[C@@H]3CCNC3)c12` [Example 227, {5-Methoxy-2-[2-(3-morpholin-4-yl-phenylamino)-pyridin-4-yl]-pyrido[3,4-d]pyrimidin-4-yl}-(R)-pyrrolidin-3-yl-amine], the half-maximal inhibitory concentration (IC50) was less than 100 nM.

Regarding `CN(c1nc(-c2ccnc(Nc3nc(F)cc(F)c3F)c2)nc2cncc(C3CC3)c12)C1CCNCC1` [Example 2019, {5-Cyclopropyl-2-[2-(3,4,6-trifluoro-pyridin-2-ylamino)-pyridin-4-yl]-pyrido[3,4-d]pyrimidin-4-yl}-methyl-piperidin-4-yl-amine], the half-inhibitory concentration (IC50) is less than 100 nM.

Turning to `Fc1cnccc1-c1nc(N2CCNCC2)c2ccncc2n1` [Example 65, 1-[2-(3-fluoropyridin-4-yl)pyrido[3,4-d]-pyrimidin-4-yl]-piperazine], the concentration for half-maximal inhibition (IC50) is 10000 to 40000 nM.

As to `CC(=O)Nc1cc(-c2nc(N3CCN[C@@H](COCc4ccccc4)C3)c3c(C4CC4)cncc3n2)ccn1` [Example 768, N-{4-[4-((R)-3-Benzyloxymethyl-piperazin-1-yl)-5-cyclopropyl-pyrido[3,4-d]pyrimidin-2-yl]-pyridin-2-yl}-acetamide], the 50% inhibitory concentration (IC50) was less than 100 nM.
